This test deals with human P2X3 receptor (Homo sapiens (Human), UniProt P56373). Nature of the test: P2X3 receptor inhibition, ATP-evoked Fluo-3 calcium fluorescence (FDSS 3000). It counts as cell-based. The note with it: C6BU-1 cell transfected with human P2X3 receptor gene; ATP-evoked Fluo-3 fluorescence. Put shortly:
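C6BU-1 cells stably transfected with human P2X3, loaded with 4 μM Fluo-3-AM for 1 h at 37 °C in HEPES buffer pH 7.5 with probenecid. Compound added 5 min before 40 nM ATP solution; fluorescence followed 3 min. IC50 from ratio of peak post-ATP to baseline fluorescence.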

The structures appear in SMILES notation.

Broadly, the IC50 is the point on the concentration scale where inhibition reaches its midpoint.

human P2X3 receptor, sequence (P56373 whole entry): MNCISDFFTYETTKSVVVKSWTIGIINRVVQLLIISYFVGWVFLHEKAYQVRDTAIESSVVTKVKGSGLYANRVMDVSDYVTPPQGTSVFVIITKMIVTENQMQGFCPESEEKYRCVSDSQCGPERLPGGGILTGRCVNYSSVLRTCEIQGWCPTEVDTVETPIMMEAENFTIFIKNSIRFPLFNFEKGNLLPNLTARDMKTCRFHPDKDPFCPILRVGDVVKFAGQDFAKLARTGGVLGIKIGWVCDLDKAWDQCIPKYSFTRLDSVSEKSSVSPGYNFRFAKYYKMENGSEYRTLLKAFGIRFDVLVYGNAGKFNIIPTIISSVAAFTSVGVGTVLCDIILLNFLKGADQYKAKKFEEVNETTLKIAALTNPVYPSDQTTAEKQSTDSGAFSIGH

`COc1ccccc1C1c2c(C(C)(C)C)n[nH]c2C(=O)N1c1ccc(-c2ccsc2)cc1` (stereo not drawn) [II-204]: the IC50 turned out to be 17 nM.

On to `COCCOc1ncccc1C1C(C(=O)CC(C)C)=C(O)C(=O)N1c1ccc(-c2ccsc2)cc1` (stereo not drawn) [Compound I-248], for which the IC50 amounted to 30 nM.

On to `COCCOc1ccccc1C1c2c(C(C)(C)C)n[nH]c2C(=O)N1c1ccc(SC)cc1` (stereo not drawn) [II-026], for which the IC50 was found to be 23 nM.

Regarding `CSc1ccc(N2C(=O)C(O)=C(C(=O)CC(C)C)C2c2ccccc2OC(C)C)cc1` (stereo not drawn) [Compound I-436], the half-maximal inhibitory concentration (IC50) was determined as 42 nM.

Turning to `Cc1ncccc1C1C(C(=O)C(C)(C)C)=C(O)C(=O)N1c1ccc(-c2ccsc2)cc1` (stereo not drawn) [Compound I-143], the IC50 came out at 331 nM.

Turning to `CSc1ccc(N2C(=O)C(O)=C(C(=O)C(C)C)C2c2ccccc2OCC2CC2)cc1` (stereo not drawn) [Compound I-589], the IC50 was 32 nM.

`CSc1ccc(N2C(=O)C(O)=C(C(=O)C(C)C)C2c2ccccc2OCC#N)cc1` (stereo not drawn) [Compound I-509]: the IC50 was determined as 247 nM.

For the compound `CC(C)C(=O)C1=C(O)C(=O)N(c2ccc(-c3ccsc3)cc2)C1c1ccccc1C#N` (stereo not drawn) [Compound I-244], the concentration for half-maximal inhibition (IC50) was 27 nM.

With `CCOCOc1ccccc1C1C(C(=O)C(C)C)=C(O)C(=O)N1c1ccc(-c2ccon2)cc1` (stereo not drawn) [Compound I-543], the IC50 worked out at 240 nM.

In the case of `COCCOc1ccccc1C1C(C(=O)C(C)C)=C(O)C(=O)N1c1ccc(-c2cccs2)cc1` (stereo not drawn) [Compound I-226], the IC50 worked out at 12 nM.

`CC(C)(C)c1n[nH]c2c1C(c1cccc3c1OCO3)N(c1ccc(-c3ccon3)cc1)C2=O` (stereo not drawn) [II-006]: the IC50 was determined as 245 nM.

Take `Cc1ccc(-c2ccc(N3C(=O)C(O)=C(C(=O)C(C)C)C3c3ccccc3N3CCOCC3)cc2)o1` (stereo not drawn) [Compound I-486]: the IC50 turned out to be 4 nM.

For `COCCOc1ccccc1C1c2c(C(C)(C)C)n[nH]c2C(=O)N1c1ccc(-c2ccsc2)cc1` (stereo not drawn) [II-115], the IC50 was determined as 11 nM.

As to `COc1ccccc1C1c2c(C(C)(C)C)n[nH]c2C(=O)N1c1ccc(C)cc1` (stereo not drawn) [II-196], the 50% inhibitory concentration (IC50) was 783 nM.

Regarding `CC(C)(C)C(=O)C1=C(O)C(=O)N(c2ccc(-c3ccon3)cc2)C1c1ccccc1OCC(N)=O` (stereo not drawn) [Compound I-144], the IC50 is 365 nM.

As to `COc1ccccc1C1c2c(C(C)C)n[nH]c2C(=O)N1c1ccc(-c2ccsc2)c(CO)c1` (stereo not drawn) [II-243], the IC50 is 138 nM.

As to `CCC(CC)C1C(C(=O)c2ccc(C(=O)N(C)C)cc2)=C(O)C(=O)N1c1ccc(-c2ccon2)cc1` (stereo not drawn) [Compound I-003], the IC50 was found to be 40 nM.

Take `COc1cc(N2C(=O)C(O)=C(C(=O)C(C)C)C2c2ccccc2OC)ccc1-c1ccsc1` (stereo not drawn) [Compound I-221]: the IC50 is 81 nM.

As to `COCCOc1ccccc1C1C(C(=O)C(C)C)=C(O)C(=O)N1c1ccc(-c2nc(C)no2)cc1` (stereo not drawn) [Compound I-271], the IC50 came out at 542 nM.

Regarding `COCc1ccccc1[C@@H]1C(C(=O)C(C)C)=C(O)C(=O)N1c1ccc(-c2csc(C)c2)cc1` [Compound I-455], the IC50 is 14 nM.

With `COc1ccccc1C1c2c(C(C)(C)C)n[nH]c2C(=O)N1c1ccc(-c2ccsc2)cn1` (stereo not drawn) [II-248], the IC50 came out at 13 nM.

As for `COCCOc1ccccc1[C@@H]1C(C(=O)C(C)C)=C(O)C(=O)N1c1ccc(-c2ccsc2)cc1` [Compound I-222], the IC50 is 6 nM.

Regarding `COCc1ccccc1C1C(C(=O)C(C)C)=C(O)C(=O)N1c1ccc(-c2ccoc2)cc1` (stereo not drawn) [Compound I-204], the IC50 is 43 nM.

With `CC(C)CC(=O)C1=C(O)C(=O)N(c2ccc(-c3ccsc3)cc2)C1c1ccccc1OC(F)F` (stereo not drawn) [Compound I-290], the IC50 worked out at 51 nM.

For `COc1cc(F)ccc1C1C(C(=O)C(C)C)=C(O)C(=O)N1c1ccc(-c2ccsc2)cc1` (stereo not drawn) [Compound I-325], the IC50 was determined as 18 nM.

For `COc1ccccc1C1c2c(C(C)(C)C)n[nH]c2C(=O)N1c1ccc(-c2ccco2)cc1` (stereo not drawn) [II-203], the IC50 turned out to be 28 nM.

In the case of `CCOCOc1ccccc1C1C(C(=O)C(C)C)=C(O)C(=O)N1c1ccc(-c2ccsc2)cc1` (stereo not drawn) [Compound I-544], the IC50 is 8 nM.

For the compound `COCCOc1ncccc1C1c2c(n[nH]c2C(C)C)C(=O)N1c1ccc(-c2nc(C)no2)cc1` (stereo not drawn) [II-281], the IC50 was found to be 664 nM.

On to `COCCOc1ccccc1C1C(C(=O)C(C)(C)C)=C(O)C(=O)N1c1ccc(SC)cc1` (stereo not drawn) [Compound I-130], for which the IC50 turned out to be 476 nM.

For `Cc1ccc(-c2ccc(N3C(=O)C(O)=C(C(=O)CC(C)C)C3c3cccnc3C(=O)NC(C)C)cc2)s1` (stereo not drawn) [Compound I-578], the IC50 was found to be 386 nM.

With `COc1ncccc1C1c2c(C(C)C)n[nH]c2C(=O)N1c1ccc(-c2ccsc2)cc1` (stereo not drawn) [II-048], the IC50 worked out at 57 nM.

Regarding `COCCOc1ncccc1C1C(C(=O)C(C)C)=C(O)C(=O)N1c1ccc(-c2csc(C)c2)cc1` (stereo not drawn) [Compound I-268], the IC50 amounted to 32 nM.

Take `COCc1ccccc1[C@@H]1C(C(=O)C(C)C)=C(O)C(=O)N1c1ccc(-c2ccc(C)s2)cc1` [Compound I-393]: the IC50 turned out to be 15 nM.

On to `CC(C)C(=O)C1=C(O)C(=O)N(c2ccc(-c3ccsc3)cc2)C1c1ccccc1OC(F)(F)F` (stereo not drawn) [Compound I-302], for which the concentration for half-maximal inhibition (IC50) is 34 nM.

Regarding `COCCN(C)C(=O)c1ncccc1C1C(C(=O)CC(C)C)=C(O)C(=O)N1c1ccc(-c2ccc(C)s2)cc1` (stereo not drawn) [Compound I-582], the IC50 is 359 nM.

Turning to `CC(C)C(=O)C1=C(O)C(=O)N(c2ccc(-c3ccsc3)cc2)C1c1ccccc1OCCCO` (stereo not drawn) [Compound I-429], the IC50 was found to be 7 nM.

For `COCc1ccccc1C1C(C(=O)CC(C)C)=C(O)C(=O)N1c1ccc(-c2ccco2)cc1` (stereo not drawn) [Compound I-355], the IC50 was 44 nM.

Turning to `CCN(C)C(=O)c1ncccc1C1C(C(=O)CC(C)C)=C(O)C(=O)N1c1ccc(-c2ccc(C)s2)cc1` (stereo not drawn) [Compound I-575], the IC50 is 252 nM.

In the case of `COCCOc1ccccc1C1C(C(=O)C(C)(C)C)=C(O)C(=O)N1c1ccc(-c2ccco2)cc1` (stereo not drawn) [Compound I-132], the IC50 stood at 43 nM.

As to `CC(C)c1n[nH]c2c1C(c1ccccc1OCC[S+](C)[O-])N(c1ccc(-c3ccsc3)cc1)C2=O` (stereo not drawn) [II-080], the IC50 turned out to be 11 nM.

Consider `CC(C)COc1ccccc1C1C(C(=O)C(C)C)=C(O)C(=O)N1c1ccc(-c2ccsc2)cc1` (stereo not drawn) [Compound I-449], for which the IC50 is 13 nM.

Turning to `COCCNC(=O)c1ncccc1C1C(C(=O)CC(C)C)=C(O)C(=O)N1c1ccc(-c2ccc(C)s2)cc1` (stereo not drawn) [Compound I-581], the IC50 is 466 nM.

`COc1ccccc1C1c2c(C(C)(C)CO)n[nH]c2C(=O)N1c1nc2ccccc2s1` (stereo not drawn) [II-139]: the IC50 was found to be 332 nM.

For the compound `COCCOc1ccccc1C1C(C(=O)CC(C)C)=C(O)C(=O)N1c1ccc(-c2ccsc2)cc1` (stereo not drawn) [Compound I-251], the IC50 is 17 nM.

As for `CC(C)CC(=O)C1=C(O)C(=O)N(c2ccc(-c3ccoc3)cc2)C1c1ccccc1OC(F)(F)F` (stereo not drawn) [Compound I-343], the IC50 was 78 nM.

For the compound `Cc1ccc(-c2ccc(N3C(=O)C(O)=C(C(=O)C(C)C)C3c3ccccc3OC(F)(F)F)cc2)s1` (stereo not drawn) [Compound I-334], the IC50 was found to be 78 nM.

For the compound `Cc1ccc(-c2ccc(N3C(=O)C(O)=C(C(=O)CC(C)C)C3c3ccccc3C(=O)N(C)C)cc2)o1` (stereo not drawn) [Compound I-399], the IC50 came out at 44 nM.

Take `Cc1ccc(-c2ccc(N3C(=O)C(O)=C(C(=O)C(C)C)C3c3ccccc3C(=O)N(C)C)cc2)s1` (stereo not drawn) [Compound I-401]: the IC50 worked out at 79 nM.

Consider `Cc1cc(-c2ccc(N3C(=O)C(O)=C(C(=O)C(C)C)C3c3ccccc3N3CCCC3=O)cc2)cs1` (stereo not drawn) [Compound I-598], for which the IC50 was 785 nM.

Regarding `Cc1nc(-c2ccc(N3C(=O)C(O)=C(C(=O)C(C)C)C3c3cccnc3N3CCOCC3)cc2)no1` (stereo not drawn) [Compound I-524], the IC50 stood at 696 nM.

Take `COCCOc1ccccc1C1C(C(=O)C(C)(C)C)=C(O)C(=O)N1c1ccc(-c2ccoc2)cc1` (stereo not drawn) [Compound I-156]: the IC50 was determined as 32 nM.

Take `COCCOc1ccccc1C1C(C(=O)C(C)(C)C)=C(O)C(=O)N1c1ccc(-c2ccon2)cc1` (stereo not drawn) [Compound I-098]: the IC50 was found to be 370 nM.

`COc1ccccc1C1c2c(C3(CO)CCCCC3)n[nH]c2C(=O)N1c1ccc(-c2ccon2)cc1` (stereo not drawn) [II-064]: the IC50 was 75 nM.

With `CSc1ccccc1C1C(C(=O)C(C)C)=C(O)C(=O)N1c1ccc(-c2csc(C)c2)cc1` (stereo not drawn) [Compound I-559], the IC50 was determined as 40 nM.

Turning to `COCCOc1ncccc1C1c2c(C(C)(C)C)n[nH]c2C(=O)N1c1ccc(-c2cccs2)cc1` (stereo not drawn) [II-035], the half-maximal inhibitory concentration (IC50) worked out at 6 nM.

With `COc1ccccc1C1C(C(=O)C(C)C)=C(O)C(=O)N1c1ccc(-c2csc(C)c2)cc1` (stereo not drawn) [Compound I-257], the IC50 amounted to 37 nM.

For the compound `COCCOc1ccccc1C1C(C(=O)C(C)C)=C(O)C(=O)N1c1ccc(-c2ccoc2)cc1` (stereo not drawn) [Compound I-201], the IC50 was 39 nM.

As to `CC(C)C(=O)C1=C(O)C(=O)N(c2ccc(-c3ccsc3)cc2)C1c1ccccc1N1CCOCC1` (stereo not drawn) [Compound I-443], the IC50 amounted to 6 nM.

Take `C[S+]([O-])CCOc1ccccc1C1c2c(C(C)(C)C)n[nH]c2C(=O)N1c1ccc(-c2ccon2)cc1` (stereo not drawn) [II-168]: the IC50 was found to be 101 nM.

With `COCOc1ccccc1C1C(C(=O)C(C)C)=C(O)C(=O)N1c1ccc(-c2ccsc2)cc1` (stereo not drawn) [Compound I-213], the IC50 was found to be 6 nM.

As to `COCCCOc1ccccc1C1C(C(=O)CC(C)C)=C(O)C(=O)N1c1ccc(-c2ccsc2)cc1` (stereo not drawn) [Compound I-490], the IC50 stood at 17 nM.

`Cc1ccc(-c2ccc(N3C(=O)C(O)=C(C(=O)C(C)C)C3c3ccccc3CCC(N)=O)cc2)o1` (stereo not drawn) [Compound I-536]: the IC50 is 32 nM.

In the case of `Cc1ccc(-c2ccc(N3C(=O)C(O)=C(C(=O)C(C)C)C3c3ccccc3OC(F)(F)F)cc2)o1` (stereo not drawn) [Compound I-359], the IC50 stood at 24 nM.

`CN(C)CCOc1ccccc1C1c2c(C(C)(C)C)n[nH]c2C(=O)N1c1ccc(-c2ccsc2)cc1` (stereo not drawn) [II-031]: the IC50 came out at 18 nM.

In the case of `Cc1ccc(-c2ccc(N3C(=O)C(O)=C(C(=O)CC(C)C)C3c3ccccc3OC(F)(F)F)cc2)s1` (stereo not drawn) [Compound I-338], the IC50 amounted to 147 nM.

Consider `COc1ccccc1C1c2c(C(C)C)n[nH]c2C(=O)N1c1ccc(-c2ccsc2)c(NC(C)=O)c1` (stereo not drawn) [II-237], for which the IC50 is 853 nM.

The record behind these values is patent US8575197B2, “Pyrolinone derivative and pharmaceutical composition comprising the same” (Shionogi & Co., Ltd., priority 2008, dated 2013).
